# Assay results taken from patent publication US20210352889A1, “MACROCYCLIC TETRAPYRROLE COMPOUNDS, COMPOSITIONS AND METHODS FOR INCREASING ABIOTIC STRESS RESISTANCE IN PLANTS” (SUNCOR ENERGY INC., priority 2018, published 2021).
# How the values were obtained:
# [1] = system: Tomato cultivar “Tiny Tim”; test: Tomato plant tolerance to heat stress (Example 19); assay type: in vivo; details: for Above ground plant biomass. Dry weight Total shoots / Roots dry weight / Above ground plant biomass, Fresh weight, Total shoots: heat stress 38° C., two foliar applications; for Above ground plant biomass. Dry weight Total shoots: harvest 27 days after first treatment, per plant; for Roots dry weight / Above ground plant biomass, Fresh weight, Total shoots: tomato; for Above ground plant biomass, Fresh weight, Total shoots: 27 days after first treatment; for Roots dry weight, % increase / Total shoots dry weight % increase / Total shoots fresh weight, % increase: vs Heat stress Control
# Description: In this example, the effects of chlorin compounds and formulations were tested on Tomato cultivar “Tiny Tim” (Stokes seeds, Ontario, Canada). Several experiments were conducted in the greenhouse and Growth Chamber. The tests were designed to determine the activity of compounds on tomato plants tolerance to heat stress. In the experiments, Tomato transplants were grown in 6″ plastic pots filled with professional soil mix to 5-6 leaves stage in the greenhouse at 22° C.-25° C. and 8 h dark/16 h light photoperiod respectively. […] The Tomato plants were treated with two foliar applications of different formulations providing an even coverage (until run-off) using hand hold Spray bottle (Continental E-Z sprayer). Plants were treated with compounds two times with 7 days interval. Twenty four hours after the first foliar spray plants were placed into a Growth chamber and exposed to temperature stress (heat stress) for 10 days. […] After second foliar spray plants were placed for a second time into the Growth chamber and exposed to temperature stress (heat stress) for another 10 days. The Tomato plants were regularly watered to avoid water deficit. The Growth chamber was set at 16 h light/8 h dark photoperiod, illumination at 300 μmol·m^−2 s^−1 during the light photoperiod and 70% relative humidity. Temperature regime in the Growth chamber was set at 25° C. during the dark. […] Plants were moved from the Growth Chamber to the greenhouse and maintained in the greenhouse for four days prior to harvest. Twenty-seven days after the first treatment, plants were harvested, and biomass were recorded. Untreated plants—Heat stress Control was used as a reference for each measurement respectively. The experiments were set out in a completely randomized design with 6 replications for each treatment.
# Arabidopsis thaliana [2] = test: Plant senescence triggered by salt stress, visual rating (Example 2); assay type: in vivo; set-up: key to Ratings at 14 days: 9: Normal growth, no leaf symptoms; 7: Nearly normal growth with some leaves and tips yellow and rolled; 4: Growth severely inhibited, significant yellowing of the leaves with most leaves rolled; 2: Complete growth arrest with most of the leaves dried and some plants dead; details: for % improvement: % senescence improvement relative to untreated control, 14 days; for Ratings at 14 days: visual leaf senescence score, salt stress 100, 200, 300 mM NaCl, percentages wt % of total composition
# Description: In this example, the effect of metalized chlorin compounds and various additives on Arabidopsis thaliana senescence triggered by salt stress was measured by a visual rating scale reflecting progressive leaf senescence symptoms. […] It was also shown that the addition of oil, in particular poly-alpha-olefin (PAO), chelating agents or combinations thereof, further increased the protection. After prolonged exposure to salt stress, Na^+ accumulation in the shoot results in cytotoxic effects, whereby the most visible symptom is yellowing, followed by drying of leaves, due to leaf senescence and death. Leaf senescence may be evaluated by visual scoring reflecting progressive leaf senescence symptoms. [table] […] All percentage values in the Table are in wt % of total composition.
# [3] = system: white clover (Trifolium repens) seedlings; test: Primary root length of white clover seedlings under salt stress (Example 3); assay type: in vivo; details: porphyrin 0.01% v/v, 7 days after germination, mean ± standard error
# Description: In this example, the effect of porphyrin compounds on the sensitivity to salt stress of seedlings was evaluated. […] For exposure to salt, the water was adjusted to contain 100 mM NaCl. […] Salt stress tolerance was measured by determining the reduction of primary root length by analysis of pictures with the Image J™ software. Root lengths (mm) were measured 7 days after the germination. The following Table 3 summarizes the results.
# Arabidopsis thaliana [4] = test: Effect of different oil on Arabidopsis senescence under salt stress (Example 24); details: in vivo
# Description: The experimental protocol is the same as that of Example 2. In this example, the effect of metalized chlorin compounds and various oils on Arabidopsis thaliana senescence triggered by salt stress was measured by a visual rating scale reflecting progressive leaf senescence symptoms. […] It was also shown that the addition of oil further increased the protection. After prolonged exposure to salt stress, Na^+ accumulation in the shoot results in cytotoxic effects, whereby the most visible symptom is yellowing, followed by drying of leaves, due to leaf senescence and death. Leaf senescence may be evaluated by visual scoring reflecting progressive leaf senescence symptoms.
# Arabidopsis seedlings = test: Pigment content under photooxidative conditions (Example 6); assay type: in vivo, Arabidopsis thaliana
# Description: In this example, the effect of chlorin compounds on the pigment content of seedlings grown under photooxidative conditions was evaluated. In particular, the effect of CuChIn on the pigment content of Arabidopsis seedlings grown under photooxidative conditions was evaluated. To do so, the pigments were extracted and quantified. It was shown that CuChIn supplemented plants retained more pigments under this type of stress. […] In this experiment, to determine the effect of CuChIn on the pigment content, seedlings were grown as in Example 1, except that the plants were transferred under LED lights (PAR 142 μmol m^-2 s^-1) one week after germination. 14 days old seedlings were then harvested and weighted. The tissue was ground in liquid nitrogen. […] The pigment concentrations were determined spectrophotometrically and calculated using the following formulas known to those skilled in the art (i.e. Sumanta et al., 2014):Ch-a=16.72A665.2-9.16A652. (for chlorophyll a); Ch-b=34.09[…]=(1000A470-1.63Ca-104.96Cb)/221 (for carotenoids) and […]-(1⁄4×[…]) (for anthocyanins) (A=absorbance). The data is expressed as means±standard error.
# [5] = system: tomato plants cv. Tumbling Tom; test: Tomato plants tolerance to drought stress (Example 9); assay type: in vivo; details: Table 9C
# Description: In this example, the effects of chlorin compounds and formulations were tested on tomato plants cv. Tumbling Tom. The experiments were carried out in a greenhouse. Tests were designed to determine the activity of compounds on tomato plants tolerance to drought stress. In the experiments, tomato plants cv. […] Foliar treatments were applied 3 times with 7 days interval. 5 replications per treatment were used.
# [6] = system: Arabidopsis thaliana seedlings; test: Primary root length of Arabidopsis seedlings under salt stress (Example 1); assay type: in vivo; details: for Root length (mm): 10 μM CuChln in media, 10 days after germination, mean ± standard error
# Description: Experiments were conducted to evaluate the effect of metallized chlorin compounds on salt stress treated seedlings, by measuring of primary root length. Copper chlorophyllin (CuChIn) was supplemented to the media onto which Arabidopsis thaliana seeds germinated. […] For exposure to salt, media was adjusted to contain 100 mM NaCl. For exposure to CuChIn, CuChIn was prepared as a 1 mM stock in water and was added to the media at 10 μM CuChIn final concentration. […] Arabidopsis seedlings were grown vertically at a temperature of 24±1° C., under LED lights (PAR 24 μmol m^−2/s^−1) and 16 hours:8 hours, light:dark photoperiod. Salt stress tolerance was measured by determining the reduction of primary root lengths.
# [7] = 20 μM CuChln, photooxidative conditions, 14 days old seedlings, mean ± standard error
# [8] = foliar spray, vs drought control
compound,measurement,setting,value
"O=C([O-])CN(CCN(CC(=O)[O-])CC(=O)[O-])CC(=O)[O-].[Ca+2].[Ca+2] [0.05% Ca2EDTA, reference compound]",Above ground plant biomass. Dry weight Total shoots,[1],4.72 g
same,Roots dry weight,[1],1.07 g/plant−^1
same,"Above ground plant biomass, Fresh weight, Total shoots",[1],34.62 g/plant^−1
same,"Roots dry weight, % increase",[1],15%
same,Total shoots dry weight % increase,[1],6%
same,"Total shoots fresh weight, % increase",[1],3%
"O=C([O-])CC(NC(CC(=O)[O-])C(=O)[O-])C(=O)[O-].[Na+].[Na+].[Na+].[Na+] (stereo not shown) [0.25% Baypure CX100 ™, tetrasodium iminodisuccinate]",% improvement,Arabidopsis thaliana [2],14.4%
same,Ratings at 14 days,Arabidopsis thaliana [2],4
"O=C(O)CC(NCCNC(CC(=O)O)C(=O)O)C(=O)O (stereo not shown) [5 mM EDDS, ethylenediamine-N,N′-disuccinic acid, reference compound]",% improvement,Arabidopsis thaliana [2],14.4%
same,Ratings at 14 days,Arabidopsis thaliana [2],4
"C=CC1=C(C)c2cc3[nH]c(cc4nc(cc5[nH]c(cc1n2)c(C)c5CCC(=O)O)C(CCC(=O)O)=C4C)c(C)c3C=C [PP9, protoporphyrin-IX]",Root length (mm),[3]; 0 mM NaCl,1.04 ± 0.05 mm
same,Root length (mm),[3]; 100 mM NaCl,0.7 ± 0.08 mm
"C=CC1=C(C)c2cc3[n-]c(cc4[n-]c(cc5nc(cc1n2)C(C)=C5C=C)c(C)c4CCC(=O)O)c(CCC(=O)O)c3C.[Zn+2] [ZnPP9, zinc protoporphyrin-IX]",Root length (mm),[3]; 0 mM NaCl,1.01 ± 0.08 mm
same,Root length (mm),[3]; 100 mM NaCl,0.8 ± 0.08 mm
copper chlorophyllin [CuChln],protection against senescence triggered by salt stress,Arabidopsis thaliana [4],provided protection against senescence triggered by salt stress
same,Anthocyanins,Arabidopsis seedlings; [7],0.08 ± 0.05 µg/mL
same,Ch-a,Arabidopsis seedlings; [7],6.62 ± 0.8 µg/mL
same,Ch-b,Arabidopsis seedlings; [7],2.28 ± 0.14 µg/mL
same,Cx + c (carotenoids),Arabidopsis seedlings; [7],1.56 ± 0.25 µg/mL
same,pigments retained under photooxidative conditions,Arabidopsis seedlings; in vivo,retain more pigments than untreated plants
same,Shoots Dry weight % increase,[5]; [8],4%
same,Shoots Fr. weight % increase,[5]; [8],29.6%
same,Plant vigor Score 1-5,"[5]; prolonged drought, foliar spray 3 times",4.6
same,Shoots Fr. weight,"[5]; prolonged drought, foliar spray 3 times with 7 days interval, Rate, %: CuChln 0.1, PAO488 + CuChln 0.5 + 0.1",8.7 g
same,Shoots Dry weight,"[5]; prolonged drought, foliar spray 3 times, Rate, %: CuChln 0.1, PAO488 + CuChln 0.5 + 0.1",0.84 g
same,Root length (mm),[6]; 0 mM NaCl,5.05 ± 0.09 mm
same,influence on root length in the control experiment,"[6]; 10 μM CuChIn, no salt",did not influence the root length
same,Root length (mm),[6]; 100 mM NaCl,3.16 ± 0.14 mm
same,salt tolerance vs untreated plants,[6]; CuChIn supplemented media,more salt tolerant than untreated plants
same,Above ground plant biomass. Dry weight Total shoots,[1],4.92 g
same,Roots dry weight,[1],1.17 g/plant−^1
same,"Above ground plant biomass, Fresh weight, Total shoots",[1],37.17 g/plant^−1
same,"Roots dry weight, % increase",[1],26%
same,Total shoots dry weight % increase,[1],10%
same,"Total shoots fresh weight, % increase",[1],11%
same,% improvement,Arabidopsis thaliana [2],28.7%
same,protection against senescence triggered by salt stress,Arabidopsis thaliana [2]; in vivo,provides protection against plants senescence triggered by salt stress
same,Ratings at 14 days,Arabidopsis thaliana [2],4.5
ethylenediaminetetraacetic acid-Ca [reference compound],% improvement,Arabidopsis thaliana [2],14.4%
same,Ratings at 14 days,Arabidopsis thaliana [2],4
